Results published in patent US10307498B2, “Cleaning and disinfecting composition” (American Sterilizer Company, priority 2015, dated 2019).

Experiment: Stability of peracetic acid over a single disinfection cycle at different disinfection solution temperatures, FIGS. 4A-4D
Format: physicochemical
Settings: PAA alone or combined with builders/part (B)
Source text: FIGS. 4A-4D are graphs that show the stability of peracetic acid over the time required for a single disinfection cycle, at different disinfection solution temperatures, and as a function of the presence or absence of two different builders formulations as well as the supplemental medium (B) of the present invention.
In the following Examples 6-8, parts (A) and (B) are as described above for Examples 1-5. Builders 1 contains two sodium phosphates, benzotriazole, tetrasodium ethylene diamine tetraacetate, a sodium molybdate, sodium hydroxide, an ethoxylated polyoxypropylene, a polyacrylate, a sodium phosphate, and water. Builders 2 contains a sodium phosphate, a sodium benzotriazole and a sodium salt of ethylene diamine tetraacetic acid.
FIGS. 4A-4D show the stability of peracetic acid over the time required for a single disinfection cycle (stability), at different disinfection solution temperatures when used alone (FIG. 4A), or in combination with prior art Builders 1 (FIG. 4B) or Builders 2 (FIG. 4C) or the supplemental medium part (B) of the present invention (FIG. 4D). The trend of each line can be used to understand the kinetics of stability (or conversely, the rate and amount of degradation of PAA). […]

## CC(=O)OO [PAA, peracetic acid]
  stability of PAA solution: relatively stable
